≈ marks a conversion by molar mass, not a printed value. Like-named read-outs stand apart in the source and are kept apart here.
Key:
[1] = system: Histoplasma capsulatum; assay: microbe, parasite or virus in culture; type: cell-based; details: Histoplasma capsulatum, Table 3, RPMI 0.165M MOPS, 24-72 hours
[2] = system: Scedosporium; assay: MIC against various species, CLSI M27 & M38 (Table 4); details: Scedosporium
[3] = system: A. furnigatus; assay: as above; details: Aspergillus fumigatus
[4] = system: Rhodotorula pilimanae; assay: MIC against fungal strains (Table 1); type: cell-based; details: Rhodotorula mucilaginosa, read-out: Minimum inhibitory concentration
[5] = system: P. variatii; assay: MIC against filamentous and dimorphic fungi, CLSI M27 & M38 (Table 3); type: cell-based, Paecilomyces variotii; details: Paecilomyces variotii, P. variatii MYA-3630, RPMI 0.165M MOPS, 24-72 hours, read-out: Minimum inhibitory concentration 100%
[6] = system: Cryptococcus neoformans H99; assay: MIC against fungal strains (Table 1); type: cell-based; details: Cryptococcus neoformans, H99, read-out: Minimum inhibitory concentration
[7] = system: Fusarium graminearum B4-5A; assay: microbe, parasite or virus in culture; type: cell-based; details: Fusarium graminearum, B45A, read-out: Minimum inhibitory concentration
[8] = system: P. variotil; assay: MIC against various species, CLSI M27 & M38 (Table 4); type: cell-based, Paecilomyces variotii; details: Paecilomyces variotii, P. variotil QC, RPMI 0.165M MOPS, 24-72 hours, read-out: Minimum inhibitory concentration 100%
[9] = system: L. prolificans; assay: as above; details: Lomentospora prolificans, read-out: Minimum inhibitory concentration 100%
[10] = system: Fusarium; assay: as above; type: cell-based; details: 24-72 hours
[11] = system: B. dermatitidis; assay: MIC against various B. dermatitidis isolates, CLSI M27 & M38; details: Blastomyces dermatitidis, RPMI 0.165M MOPS, 24-72 hours
[12] = system: Candida albicans MYA2876; assay: MIC against fungal strains (Table 1); type: cell-based; details: Candida albicans, MYA2876, read-out: Minimum inhibitory concentration
[13] = system: Candida albicans 64124; assay: MIC against fungal strains (Table 1); type: cell-based; details: read-out: Minimum inhibitory concentration
[14] = system: Coccidioldes sp.; assay: microbe, parasite or virus in culture; type: cell-based, Coccidioides species; details: Coccidioides, Table 3, RPMI 0.165M MOPS, 24-72 hours

With C[C@@H](c1ncncc1F)[C@](O)(Cn1cncn1)c1ccc(F)cc1F [Voriconazole, reference compound] the MIC ([1]; read-out: Minimum inhibitory concentration 100%, Histoplasma capsulatum HC1) was 0.125 µg/mL (≈ 0.358 µM), the MIC ([1]; read-out: Minimum inhibitory concentration 100%, Histoplasma capsulatum HC2) was no more than 0.03 µg/mL and the MIC ([1]; read-out: Minimum inhibitory concentration 100%, Histoplasma capsulatum HC3) was no more than 0.03 µg/mL. The MIC ([2]; read-out: Minimum inhibitory concentration 100%, Scedosporium SA1, RPMI 0.165M MOPS, 24-72 hours) was 1 µg/mL (≈ 2.86 µM), the MIC ([2]; read-out: Minimum inhibitory concentration 100%, Scedosporium SB1, RPMI 0.165M MOPS, 24-72 hours) was 2 µg/mL (≈ 5.73 µM) and the MIC ([3]; read-out: Minimum inhibitory concentration 100%, A. furnigatus AF1, RPMI 0.165M MOPS, 24-72 hours) was 1 µg/mL (≈ 2.86 µM). It also gave an MIC ([3]; read-out: Minimum inhibitory concentration 100%, A. furnigatus AF2, RPMI 0.165M MOPS, 24-72 hours) of 8 µg/mL (≈ 22.9 µM), an MIC ([3]; read-out: Minimum inhibitory concentration 100%, A. furnigatus AF3, RPMI 0.165M MOPS, 24-72 hours) of 4 µg/mL (≈ 11.5 µM) and an MIC [4] of 8 µg/mL (≈ 22.9 µM). For the same compound, the MIC [5] was 0.125 µg/mL (≈ 0.358 µM), the MIC [6] was 0.125 µg/mL (≈ 0.358 µM) and the MIC [7] was 32 µg/mL (≈ 91.6 µM). For the same compound, the MIC [8] was 0.125 µg/mL (≈ 0.358 µM), the MIC [9] was greater than 16 µg/mL and the MIC ([10]; Fusarium FO1, RPMI 0.165M MOPS, read-out: Minimum inhibitory concentration 100%) was greater than 16 µg/mL. For the same compound, the “Minimum inhibitory concentration 100%” value ([10]; Fusarium FO2, RPMI 0.165M MOPS) was greater than 16 µg/mL, the “Minimum inhibitory concentration 100%” value ([10]; Fusarium FS1, RPMI 0.165M MOPS) was greater than 16 µg/mL and the MIC ([11]; read-out: Minimum inhibitory concentration 100%, B. dermatitidis BD1) was 0.06 µg/mL (≈ 0.172 µM). It also gave an MIC ([11]; read-out: Minimum inhibitory concentration 100%, B. dermatitidis BD2) of no more than 0.03 µg/mL, an MIC ([11]; read-out: Minimum inhibitory concentration 100%, B. dermatitidis BD3) of 0.125 µg/mL (≈ 0.358 µM) and an MIC [12] of 0.125 µg/mL (≈ 0.358 µM). For the same compound, the MIC [13] was greater than 256 µg/mL, the MIC ([14]; read-out: Minimum inhibitory concentration 100%, Coccidioldes sp. Cocci1) was 0.25 µg/mL (≈ 0.716 µM) and the MIC ([14]; read-out: Minimum inhibitory concentration 100%, Coccidioldes sp. Cocci2) was 2 µg/mL (≈ 5.73 µM). The MIC ([14]; read-out: Minimum inhibitory concentration 100%, Coccidioldes sp. DI17-143) was 0.125 µg/mL (≈ 0.358 µM).

From patent publication US20210230203A1, “Amphiphilic Kanamycin Compositions and Methods” (priority 2020, published 2021)
